Source: PubChem BioAssay AID489004 (Sanford-Burnham Center for Chemical Genomics, 2010)

Tested on: Jurkat NF-kB luciferase reporter, PMA/ionomycin, luminescence 16 h
Assay: blockers of NF-kB activation in T cells – Jurkat, luciferase reporter, luminescence, B- and T-cell, dose response (AID 489004)

## CC(=O)OC[C@]12CCC(C)=C[C@H]1O[C@@H]1[C@H](O)[C@@H](OC(C)=O)[C@@]2(C)[C@]12CO2
  IC50: < 0.16 µM
